We go through one compound from ChEMBL document CHEMBL1139672, “1,2,3,4-Tetrahydroisoquinolinyl sulfamic acids as phosphatase PTP1B inhibitors” (Bioorg Med Chem Lett, 2006).

Structures are written as SMILES.

The target of assay [1] is Receptor-type tyrosine-protein phosphatase mu (Homo sapiens, UniProt P28827). As to the kind of experiment: Inhibition of HPTP mu.
The target in assay [2] is Receptor-type tyrosine-protein phosphatase epsilon (Homo sapiens, UniProt P23469). As to the kind of experiment: Inhibition of HPTP epsilon.
The target in assay [3] is T1, Receptor-type tyrosine-protein phosphatase C (Homo sapiens, UniProt P08575).
T1 sequence (P08575 whole entry): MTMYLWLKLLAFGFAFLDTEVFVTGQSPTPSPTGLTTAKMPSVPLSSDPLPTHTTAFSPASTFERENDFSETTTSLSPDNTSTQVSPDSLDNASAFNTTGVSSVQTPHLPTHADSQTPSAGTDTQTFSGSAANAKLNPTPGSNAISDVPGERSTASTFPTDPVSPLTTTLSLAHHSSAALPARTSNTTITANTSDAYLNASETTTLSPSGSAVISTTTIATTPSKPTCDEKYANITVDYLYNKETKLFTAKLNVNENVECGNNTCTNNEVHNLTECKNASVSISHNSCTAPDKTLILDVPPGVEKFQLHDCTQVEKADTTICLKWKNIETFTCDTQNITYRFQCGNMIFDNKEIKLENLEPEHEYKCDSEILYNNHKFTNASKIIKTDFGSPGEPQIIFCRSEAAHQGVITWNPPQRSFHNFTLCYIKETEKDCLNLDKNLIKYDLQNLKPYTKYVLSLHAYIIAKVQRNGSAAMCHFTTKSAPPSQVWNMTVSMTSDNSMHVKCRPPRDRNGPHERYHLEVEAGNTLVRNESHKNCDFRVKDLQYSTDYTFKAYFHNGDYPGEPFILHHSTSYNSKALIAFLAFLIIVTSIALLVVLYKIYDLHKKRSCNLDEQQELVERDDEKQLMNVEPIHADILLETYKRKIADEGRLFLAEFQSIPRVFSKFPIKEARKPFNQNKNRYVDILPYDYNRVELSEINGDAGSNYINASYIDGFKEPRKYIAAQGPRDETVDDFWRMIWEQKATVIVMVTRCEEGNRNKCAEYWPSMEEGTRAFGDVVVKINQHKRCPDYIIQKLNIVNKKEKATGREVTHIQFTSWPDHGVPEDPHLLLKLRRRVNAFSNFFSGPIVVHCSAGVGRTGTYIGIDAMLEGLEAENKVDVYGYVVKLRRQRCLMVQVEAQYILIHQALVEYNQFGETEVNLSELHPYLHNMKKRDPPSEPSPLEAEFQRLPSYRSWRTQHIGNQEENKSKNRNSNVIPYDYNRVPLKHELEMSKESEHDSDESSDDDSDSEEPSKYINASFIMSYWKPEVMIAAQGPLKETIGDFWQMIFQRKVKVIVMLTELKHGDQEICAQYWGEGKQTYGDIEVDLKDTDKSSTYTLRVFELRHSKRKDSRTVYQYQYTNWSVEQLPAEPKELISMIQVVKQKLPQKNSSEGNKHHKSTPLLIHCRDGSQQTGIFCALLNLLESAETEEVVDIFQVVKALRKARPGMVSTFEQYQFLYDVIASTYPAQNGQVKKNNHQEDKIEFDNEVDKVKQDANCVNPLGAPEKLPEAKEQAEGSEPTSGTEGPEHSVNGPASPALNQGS
As to the kind of experiment: Inhibition of CD45.

For assay [4], the target named is Dual specificity protein phosphatase 3 (Homo sapiens, UniProt P51452). In words: Inhibition of VHR.
Assay [5] is described as follows: Inhibition of STP1.
The target of assay [6] is T2, Tyrosine-protein phosphatase non-receptor type 2 (Homo sapiens, UniProt P17706).
T2 sequence (P17706 whole entry): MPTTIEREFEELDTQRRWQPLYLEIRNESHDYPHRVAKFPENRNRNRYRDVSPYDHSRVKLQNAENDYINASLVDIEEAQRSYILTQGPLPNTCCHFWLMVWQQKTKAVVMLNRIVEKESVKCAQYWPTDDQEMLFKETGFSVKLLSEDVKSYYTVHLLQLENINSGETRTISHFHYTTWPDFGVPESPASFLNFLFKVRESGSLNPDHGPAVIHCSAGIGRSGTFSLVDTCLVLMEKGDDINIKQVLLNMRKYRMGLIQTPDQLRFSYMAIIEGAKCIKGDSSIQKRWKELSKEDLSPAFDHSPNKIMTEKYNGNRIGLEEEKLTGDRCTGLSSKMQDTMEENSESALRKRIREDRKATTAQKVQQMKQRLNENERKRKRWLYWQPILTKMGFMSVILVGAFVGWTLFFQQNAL
In words: Inhibition of TC-PTP38.

Assay [7] deals with Receptor-type tyrosine-protein phosphatase gamma (Homo sapiens, UniProt P23470). As to the kind of experiment: Inhibition of PTP gamma.
The target of assay [8] is Tyrosine-protein phosphatase non-receptor type 6 (Homo sapiens, UniProt P29350). In words: Inhibition of SHP1.
Assay [9] addresses T3, Tyrosine-protein phosphatase non-receptor type 11 (Homo sapiens, UniProt Q06124).
T3 sequence (Q06124 whole entry): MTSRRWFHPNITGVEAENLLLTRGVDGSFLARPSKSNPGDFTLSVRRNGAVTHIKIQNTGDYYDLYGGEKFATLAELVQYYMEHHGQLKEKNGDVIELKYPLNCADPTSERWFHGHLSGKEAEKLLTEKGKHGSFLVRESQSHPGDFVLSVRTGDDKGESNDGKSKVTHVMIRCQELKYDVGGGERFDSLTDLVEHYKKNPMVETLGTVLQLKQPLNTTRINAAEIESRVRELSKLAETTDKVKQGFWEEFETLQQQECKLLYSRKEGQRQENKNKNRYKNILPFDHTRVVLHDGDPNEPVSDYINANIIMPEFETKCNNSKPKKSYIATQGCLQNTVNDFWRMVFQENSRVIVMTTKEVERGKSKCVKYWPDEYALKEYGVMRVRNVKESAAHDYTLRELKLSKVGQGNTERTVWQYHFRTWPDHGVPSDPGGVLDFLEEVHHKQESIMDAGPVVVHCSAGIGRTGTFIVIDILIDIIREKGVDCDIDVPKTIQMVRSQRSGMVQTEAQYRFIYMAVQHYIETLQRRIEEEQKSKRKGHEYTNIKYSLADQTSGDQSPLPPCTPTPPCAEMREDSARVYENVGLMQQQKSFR
In words: Inhibition of SHP2.

Assay [10] concerns the target Receptor-type tyrosine-protein phosphatase F (Homo sapiens, UniProt P10586). In words: Inhibition of LAR.
Assay [11] deals with T4, Low molecular weight phosphotyrosine protein phosphatase (Homo sapiens, UniProt P24666).
T4 sequence (P24666 whole entry): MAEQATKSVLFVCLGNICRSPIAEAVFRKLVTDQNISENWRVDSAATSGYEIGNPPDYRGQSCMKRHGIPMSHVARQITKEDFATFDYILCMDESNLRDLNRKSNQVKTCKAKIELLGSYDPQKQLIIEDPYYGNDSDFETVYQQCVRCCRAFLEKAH
As to the kind of experiment: Inhibition of HCPTPA.

For assay [12], the target named is Receptor-type tyrosine-protein phosphatase beta (Homo sapiens, UniProt P23467). In words: Inhibition of HPTP beta.
Assay [13] has as its target T2, Tyrosine-protein phosphatase non-receptor type 2. In words: Inhibition of TCPTP.

Receptor-type tyrosine-protein phosphatase gamma, sequence (P23470 whole entry): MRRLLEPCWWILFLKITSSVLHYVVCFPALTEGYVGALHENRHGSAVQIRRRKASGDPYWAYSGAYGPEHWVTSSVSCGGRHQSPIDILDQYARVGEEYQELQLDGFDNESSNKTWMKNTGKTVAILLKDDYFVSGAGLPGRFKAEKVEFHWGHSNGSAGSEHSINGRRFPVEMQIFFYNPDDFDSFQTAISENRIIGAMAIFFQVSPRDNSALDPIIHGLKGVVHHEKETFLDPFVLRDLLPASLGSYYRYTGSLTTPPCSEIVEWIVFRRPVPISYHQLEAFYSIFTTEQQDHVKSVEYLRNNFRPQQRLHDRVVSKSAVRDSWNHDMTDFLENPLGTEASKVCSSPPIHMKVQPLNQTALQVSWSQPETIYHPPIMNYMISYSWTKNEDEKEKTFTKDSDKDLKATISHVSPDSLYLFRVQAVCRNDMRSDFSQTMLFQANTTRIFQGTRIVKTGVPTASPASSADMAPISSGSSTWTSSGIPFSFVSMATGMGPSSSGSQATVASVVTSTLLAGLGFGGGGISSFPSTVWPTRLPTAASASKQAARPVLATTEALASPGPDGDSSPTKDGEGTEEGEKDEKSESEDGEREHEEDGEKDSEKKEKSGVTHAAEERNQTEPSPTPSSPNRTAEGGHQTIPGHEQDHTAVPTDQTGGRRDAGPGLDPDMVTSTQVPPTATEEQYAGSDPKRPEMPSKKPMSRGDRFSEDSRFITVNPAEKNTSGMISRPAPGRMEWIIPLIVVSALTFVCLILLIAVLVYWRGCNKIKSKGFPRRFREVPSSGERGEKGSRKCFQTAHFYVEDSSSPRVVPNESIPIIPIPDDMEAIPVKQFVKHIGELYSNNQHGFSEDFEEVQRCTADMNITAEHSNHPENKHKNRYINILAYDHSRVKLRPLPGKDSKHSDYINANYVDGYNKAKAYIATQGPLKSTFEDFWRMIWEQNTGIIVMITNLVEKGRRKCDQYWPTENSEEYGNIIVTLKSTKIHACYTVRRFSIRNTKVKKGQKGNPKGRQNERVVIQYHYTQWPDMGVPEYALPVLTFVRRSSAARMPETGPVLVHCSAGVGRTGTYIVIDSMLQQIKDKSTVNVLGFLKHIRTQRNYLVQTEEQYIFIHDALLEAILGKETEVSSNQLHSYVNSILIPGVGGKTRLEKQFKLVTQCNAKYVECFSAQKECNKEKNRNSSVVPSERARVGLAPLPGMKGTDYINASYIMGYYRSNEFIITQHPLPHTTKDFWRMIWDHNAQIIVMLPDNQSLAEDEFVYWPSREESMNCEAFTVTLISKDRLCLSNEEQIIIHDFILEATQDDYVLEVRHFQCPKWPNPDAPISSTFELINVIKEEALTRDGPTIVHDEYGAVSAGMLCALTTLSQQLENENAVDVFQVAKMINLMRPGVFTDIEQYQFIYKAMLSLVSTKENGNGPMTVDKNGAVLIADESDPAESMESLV
Tyrosine-protein phosphatase non-receptor type 6, sequence (P29350 whole entry): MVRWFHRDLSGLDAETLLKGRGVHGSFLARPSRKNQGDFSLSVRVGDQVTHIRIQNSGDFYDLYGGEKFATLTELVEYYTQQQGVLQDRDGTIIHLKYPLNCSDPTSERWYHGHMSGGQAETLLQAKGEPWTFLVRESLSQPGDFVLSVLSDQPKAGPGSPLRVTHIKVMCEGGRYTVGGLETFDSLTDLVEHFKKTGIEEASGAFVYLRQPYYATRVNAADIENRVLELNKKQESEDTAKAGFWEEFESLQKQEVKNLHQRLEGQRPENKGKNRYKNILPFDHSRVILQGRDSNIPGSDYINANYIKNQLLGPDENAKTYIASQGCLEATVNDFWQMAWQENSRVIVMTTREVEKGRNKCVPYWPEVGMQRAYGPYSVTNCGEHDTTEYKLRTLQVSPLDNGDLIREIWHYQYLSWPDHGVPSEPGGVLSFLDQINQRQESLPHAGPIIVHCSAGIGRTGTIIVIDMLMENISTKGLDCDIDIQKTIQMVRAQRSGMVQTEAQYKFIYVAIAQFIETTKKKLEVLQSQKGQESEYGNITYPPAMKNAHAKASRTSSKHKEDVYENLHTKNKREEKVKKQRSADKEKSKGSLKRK
Receptor-type tyrosine-protein phosphatase beta, sequence (P23467 whole entry): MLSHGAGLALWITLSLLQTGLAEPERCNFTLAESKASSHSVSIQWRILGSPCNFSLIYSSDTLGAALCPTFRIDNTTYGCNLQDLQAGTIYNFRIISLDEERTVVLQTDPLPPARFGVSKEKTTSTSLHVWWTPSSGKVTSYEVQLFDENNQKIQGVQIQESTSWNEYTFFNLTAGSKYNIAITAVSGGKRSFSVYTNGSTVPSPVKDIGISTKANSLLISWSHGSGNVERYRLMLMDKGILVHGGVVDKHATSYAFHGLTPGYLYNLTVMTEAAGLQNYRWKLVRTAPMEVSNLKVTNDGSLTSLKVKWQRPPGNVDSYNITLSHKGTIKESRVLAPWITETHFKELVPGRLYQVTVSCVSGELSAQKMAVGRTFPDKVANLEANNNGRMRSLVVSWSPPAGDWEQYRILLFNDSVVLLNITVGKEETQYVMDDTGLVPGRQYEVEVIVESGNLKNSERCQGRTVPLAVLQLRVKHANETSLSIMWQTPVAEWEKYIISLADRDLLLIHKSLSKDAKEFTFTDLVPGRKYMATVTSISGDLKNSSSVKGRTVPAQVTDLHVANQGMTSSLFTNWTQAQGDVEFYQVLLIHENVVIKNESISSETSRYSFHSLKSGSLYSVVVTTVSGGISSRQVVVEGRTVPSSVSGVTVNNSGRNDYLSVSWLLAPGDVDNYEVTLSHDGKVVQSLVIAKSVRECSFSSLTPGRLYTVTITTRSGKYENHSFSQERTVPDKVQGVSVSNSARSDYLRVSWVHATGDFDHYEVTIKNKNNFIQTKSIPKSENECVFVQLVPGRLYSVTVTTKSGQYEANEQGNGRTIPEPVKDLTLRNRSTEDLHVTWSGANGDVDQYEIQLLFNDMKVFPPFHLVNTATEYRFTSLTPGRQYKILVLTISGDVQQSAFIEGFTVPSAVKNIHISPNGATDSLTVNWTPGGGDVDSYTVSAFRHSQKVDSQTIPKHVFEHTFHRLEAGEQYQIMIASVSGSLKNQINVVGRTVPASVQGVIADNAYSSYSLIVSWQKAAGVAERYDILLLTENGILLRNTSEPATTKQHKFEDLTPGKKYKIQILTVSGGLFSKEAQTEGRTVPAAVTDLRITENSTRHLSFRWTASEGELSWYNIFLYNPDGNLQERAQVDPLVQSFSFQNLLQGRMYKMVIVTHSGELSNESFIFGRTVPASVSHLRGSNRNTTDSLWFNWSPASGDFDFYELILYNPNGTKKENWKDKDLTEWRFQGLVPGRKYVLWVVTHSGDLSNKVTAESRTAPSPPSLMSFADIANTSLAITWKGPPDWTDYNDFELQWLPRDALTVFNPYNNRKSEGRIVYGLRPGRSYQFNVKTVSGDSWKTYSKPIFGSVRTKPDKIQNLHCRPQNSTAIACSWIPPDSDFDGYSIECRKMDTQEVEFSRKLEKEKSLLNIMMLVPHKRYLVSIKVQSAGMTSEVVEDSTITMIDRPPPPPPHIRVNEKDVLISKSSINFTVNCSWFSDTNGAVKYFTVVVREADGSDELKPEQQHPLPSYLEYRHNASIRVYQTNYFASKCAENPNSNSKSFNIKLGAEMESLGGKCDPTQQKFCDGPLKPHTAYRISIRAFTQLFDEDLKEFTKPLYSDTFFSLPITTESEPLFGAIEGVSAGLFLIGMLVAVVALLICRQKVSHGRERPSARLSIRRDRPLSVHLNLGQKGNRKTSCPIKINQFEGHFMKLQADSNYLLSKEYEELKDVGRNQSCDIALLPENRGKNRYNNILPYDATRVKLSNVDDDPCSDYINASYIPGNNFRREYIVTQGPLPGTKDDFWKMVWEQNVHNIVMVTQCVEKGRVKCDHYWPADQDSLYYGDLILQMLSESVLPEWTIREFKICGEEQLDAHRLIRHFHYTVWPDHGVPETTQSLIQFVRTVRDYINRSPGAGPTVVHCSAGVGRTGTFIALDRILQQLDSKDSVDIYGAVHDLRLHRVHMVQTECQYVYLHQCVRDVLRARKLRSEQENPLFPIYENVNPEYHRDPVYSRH
Dual specificity protein phosphatase 3, sequence (P51452 whole entry): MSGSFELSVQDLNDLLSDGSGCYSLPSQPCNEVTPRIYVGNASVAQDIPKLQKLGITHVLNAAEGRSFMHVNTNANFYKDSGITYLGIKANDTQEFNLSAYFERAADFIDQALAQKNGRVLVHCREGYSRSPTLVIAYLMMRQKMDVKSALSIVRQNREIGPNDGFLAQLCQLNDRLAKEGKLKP
Receptor-type tyrosine-protein phosphatase epsilon, sequence (P23469 whole entry): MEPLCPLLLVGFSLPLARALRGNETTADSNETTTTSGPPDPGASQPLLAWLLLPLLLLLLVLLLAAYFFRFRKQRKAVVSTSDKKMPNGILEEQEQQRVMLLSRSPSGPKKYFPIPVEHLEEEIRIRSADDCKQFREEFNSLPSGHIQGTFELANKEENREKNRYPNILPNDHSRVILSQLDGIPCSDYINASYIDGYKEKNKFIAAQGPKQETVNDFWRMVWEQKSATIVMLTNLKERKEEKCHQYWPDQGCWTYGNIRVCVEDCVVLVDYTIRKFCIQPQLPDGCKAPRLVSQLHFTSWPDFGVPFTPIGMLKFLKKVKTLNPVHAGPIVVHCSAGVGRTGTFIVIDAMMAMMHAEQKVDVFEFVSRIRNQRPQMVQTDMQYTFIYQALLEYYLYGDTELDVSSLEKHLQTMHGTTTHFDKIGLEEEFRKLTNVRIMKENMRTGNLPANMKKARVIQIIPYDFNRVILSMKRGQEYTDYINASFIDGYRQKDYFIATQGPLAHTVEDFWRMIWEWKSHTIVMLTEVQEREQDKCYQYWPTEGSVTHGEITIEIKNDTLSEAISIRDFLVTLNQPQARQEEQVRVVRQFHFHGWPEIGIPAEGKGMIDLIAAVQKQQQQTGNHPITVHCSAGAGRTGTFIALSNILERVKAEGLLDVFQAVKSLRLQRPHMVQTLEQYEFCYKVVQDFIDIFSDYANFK

Take `CNC(=O)[C@@H]1Cc2ccc(NS(=O)(=O)O)cc2CN1C(=O)CCc1cccc(NS(=O)(=O)O)c1`: the IC50 (as a rule, the concentration that inhibits the measured activity by half) is above 500 µM in assay [1]; above 500 µM in assay [2]; above 500 µM in assay [3]; 4 µM in assay [4]; 8.1 µM in assay [5]; 9.9 µM in assay [6]. Moreover, the IC50 was above 500 µM in assay [7]; 203 µM in assay [8]; above 500 µM in assay [9]; above 500 µM in assay [10]; 3.1 µM in assay [11]; 20.7 µM in [12]. Moreover, in assay [13], the IC50 came to 9.4 µM.
